Experimental data reported in US7375259B1, “Solanum tuberosum sterol alkaloid glycosyltransferase (SGT) a novel solanidine glucosyltransferase SGT2 and uses thereof” (priority 2005, dated 2008).

What was measured:
[1] = test system: recombinant SGT2; test: in vitro solanidine glycosyltransferase assay of recombinant SGT2 with Solanaceous aglycones and UDP-[3H]sugar donors; conditions: for SGT2 galactosyltransferase activity with aglycone substrate: UDP-[3H]galactose as sugar donor, activity threshold 2-fold the reaction blank; for SGT2 glucosyltransferase activity with aglycone substrate: UDP-[3H]glucose as sugar donor, 60 min, 37° C., SGAs and UDP-sugars 33 μM
[2] = test system: SGT2; format: biochemical, Solanum tuberosum; conditions: 1,000 μM inhibitor
[3] = test system: Colorado potato beetle; conditions: artificial diets; Kowalski et al. 1999; cited from earlier work

SMILES	SGT2 galactosyltransferase activity with aglycone substrate [1]	SGT2 glucosyltransferase activity with aglycone substrate [1]	inhibition of SGT2 activity (in words) [2]	toxicity to the Colorado potato beetle [3]	inhibition of SGT2 activity [2] [%]
C[C@H]1CC[C@@H]2[C@@H](C)[C@H]3[C@H](C[C@H]4[C@@H]5CC=C6C[C@@H](O)CC[C@]6(C)[C@H]5CC[C@]34C)N2C1 [solanidine]	No activity	maximum activity	–	–	–
C[C@@H]1CC[C@@]2(NC1)O[C@H]1C[C@H]3[C@@H]4CC=C5C[C@@H](O)CC[C@]5(C)[C@H]4CC[C@]3(C)[C@H]1[C@@H]2C [solasodine]	No activity	readily capable of utilizing UDP-glucose as a substrate	–	–	–
C[C@H]1CC[C@]2(NC1)O[C@H]1C[C@H]3[C@@H]4CC[C@H]5C[C@@H](O)CC[C@]5(C)[C@H]4CC[C@]3(C)[C@H]1[C@@H]2C [tomatidine]	No activity	readily capable of utilizing UDP-glucose as a substrate	–	–	–
C[C@H]1CC[C@@H]2[C@@H](C)[C@H]3[C@H](C[C@H]4[C@@H]5CC=C6C[C@@H](O[C@@H]7O[C@H](CO)[C@H](O[C@@H]8O[C@@H](C)[C@H](O)[C@@H](O)[C@H]8O)[C@H](O)[C@@H]7O[C@@H]7O[C@@H](C)[C@@H](O)[C@@H](O)[C@H]7O)CC[C@]6(C)[C@H]5CC[C@]34C)N2C1 [α-chaconine]	–	–	completely inhibited	–	–
C[C@H]1CC[C@@H]2[C@@H](C)[C@H]3[C@H](C[C@H]4[C@@H]5CC=C6C[C@@H](O[C@@H]7O[C@H](CO)[C@H](O)[C@H](O[C@@H]8O[C@H](CO)[C@@H](O)[C@H](O)[C@H]8O)[C@H]7O[C@@H]7O[C@@H](C)[C@H](O)[C@@H](O)[C@H]7O)CC[C@]6(C)[C@H]5CC[C@]34C)N2C1 [α-solanine]	–	–	–	more toxic	39
